Measured values from patent publication US20110039721A1, “METHOD FOR PREDICTION ABOUT CARCINOGENICITY OF SUBSTANCE IN RODENT” (Chemicals Evaluation and Research Institute, priority 2007, published 2011).

Legend:
[1] = test system: mRNA expressed from the genes (A) to (D) in rat liver; experiment: Behavior of genes (mRNA expression level, oligo-DNA microarray) in rat liver after 28-day oral administration; type: in vivo
Procedure, shortened: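 Male F344 SPF rats, 5 weeks old, four per group, dosed by oral gavage once daily for 28 days with test chemical or matched-volume solvent. Liver total RNA profiled on oligo-DNA microarray. Change ≥1.5-fold or ≤1/1.5 versus vehicle counted as significant if its direction matched that seen with other carcinogens.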

rodent = conditions: in vivo; cited from earlier work
liver = conditions: in vivo; cited from earlier work
[2] = (A), Unigene Rn.144554, defined direction +, rat liver, oral once daily 28 days
[3] = (A), Unigene Rn.167075, defined direction +, rat liver, oral once daily 28 days, significant = 1.5 times or more or 1/1.5 or less of control
[4] = (A), Unigene Rn.167075, defined direction −, rat liver, oral once daily 28 days
[5] = (A), Unigene Rn.5834, defined direction +, rat liver, oral once daily 28 days
[6] = (A), Unigene Rn.9836, defined direction +, rat liver, oral once daily 28 days
[7] = (B), Unigene Rn.1430, defined direction −, rat liver, oral once daily 28 days
[8] = (B), Unigene Rn.19329, defined direction +, rat liver, oral once daily 28 days
[9] = (B), Unigene Rn.21240, defined direction +, rat liver, oral once daily 28 days
[10] = (C), Unigene Rn.106184, defined direction +, rat liver, oral once daily 28 days
[11] = (C), Unigene Rn.108075, defined direction −, rat liver, oral once daily 28 days
[12] = (C), Unigene Rn.11766, defined direction +, rat liver, oral once daily 28 days
[13] = (C), Unigene Rn.118529, defined direction −, rat liver, oral once daily 28 days
[14] = (C), Unigene Rn.119024, defined direction −, rat liver, oral once daily 28 days
[15] = (C), Unigene Rn.120914, defined direction +, rat liver, oral once daily 28 days
[16] = (C), Unigene Rn.123063, defined direction −, rat liver, oral once daily 28 days
[17] = (C), Unigene Rn.143213, defined direction −, rat liver, oral once daily 28 days
[18] = (C), Unigene Rn.144946, defined direction −, rat liver, oral once daily 28 days
[19] = (C), Unigene Rn.14744, defined direction −, rat liver, oral once daily 28 days
[20] = (C), Unigene Rn.1647, defined direction −, rat liver, oral once daily 28 days
[21] = (C), Unigene Rn.164817, defined direction +, rat liver, oral once daily 28 days
[22] = (C), Unigene Rn.167685, defined direction −, rat liver, oral once daily 28 days
[23] = (C), Unigene Rn.185941, defined direction −, rat liver, oral once daily 28 days
[24] = (C), Unigene Rn.18728, defined direction −, rat liver, oral once daily 28 days
[25] = (C), Unigene Rn.201760, defined direction +, rat liver, oral once daily 28 days
[26] = (C), Unigene Rn.23969, defined direction +, rat liver, oral once daily 28 days
[27] = (C), Unigene Rn.24561, defined direction −, rat liver, oral once daily 28 days
[28] = (C), Unigene Rn.43232, defined direction −, rat liver, oral once daily 28 days
[29] = (C), Unigene Rn.4620, defined direction +, rat liver, oral once daily 28 days
[30] = (C), Unigene Rn.9757, defined direction +, rat liver, oral once daily 28 days
[31] = (C), Unigene Rn.9779, defined direction +, rat liver, oral once daily 28 days
[32] = (C), Unigene Rn.9862, defined direction −, rat liver, oral once daily 28 days
[33] = (D), Unigene Rn.9939, defined direction −, rat liver, oral once daily 28 days

SMILES: Oc1cccc2cccnc12 [TS007, 8-Hydroxyquinoline]
- Behavior of gene caused by administration of chemical substance, Gene No. 154 ([1]; rat, in vivo): −
- Behavior of gene caused by administration of chemical substance, Gene No. 533 ([1]; rat, in vivo): −
- Behavior of gene caused by administration of chemical substance, Gene No. 725 ([1]; rat, in vivo): −
- Behavior of gene caused by administration of chemical substance, Gene No. 813 ([1]; rat, in vivo): −
- Behavior of gene caused by administration of chemical substance, Gene No. 893 ([1]; rat, in vivo): −
- Behavior of gene caused by administration of chemical substance, Gene No. 1119 ([1]; rat, in vivo): −
- Behavior of gene caused by administration of chemical substance, Gene No. 1131 ([1]; rat, in vivo): −
- Behavior of gene caused by administration of chemical substance, Gene No. 1163 ([1]; rat, in vivo): −
- Behavior of gene caused by administration of chemical substance, Gene No. 1334 ([1]; rat, in vivo): −
- Behavior of gene caused by administration of chemical substance, Gene No. 1494 ([1]; rat, in vivo): −
- Behavior of gene caused by administration of chemical substance, Gene No. 1562 ([1]; rat, in vivo): −
- Behavior of gene caused by administration of chemical substance, Gene No. 1741 ([1]; rat, in vivo): −
- Behavior of gene caused by administration of chemical substance, Gene No. 1993 ([1]; rat, in vivo): −
- Behavior of gene caused by administration of chemical substance, Gene No. 2026 ([1]; rat, in vivo): −
- Behavior of gene caused by administration of chemical substance, Gene No. 2045 ([1]; rat, in vivo): −
- Behavior of gene caused by administration of chemical substance, Gene No. 2203 ([1]; rat, in vivo): −
- Behavior of gene caused by administration of chemical substance, Gene No. 2494 ([1]; rat, in vivo): −
- Behavior of gene caused by administration of chemical substance, Gene No. 2546 ([1]; rat, in vivo): −
- Behavior of gene caused by administration of chemical substance, Gene No. 3776 ([1]; rat, in vivo): −
- Behavior of gene caused by administration of chemical substance, Gene No. 3929 ([1]; rat, in vivo): −
- Behavior of gene caused by administration of chemical substance, Gene No. 4095 ([1]; rat, in vivo): −
- Behavior of gene caused by administration of chemical substance, Gene No. 4218 ([1]; rat, in vivo): −
- Behavior of gene caused by administration of chemical substance, Gene No. 4846 ([1]; rat, in vivo): −
- Behavior of gene caused by administration of chemical substance, Gene No. 4973 ([1]; rat, in vivo): −
- Behavior of gene caused by administration of chemical substance, Gene No. 5600 ([1]; rat, in vivo): −
- Behavior of gene caused by administration of chemical substance, Gene No. 5634 ([1]; rat, in vivo): −
- Behavior of gene caused by administration of chemical substance, Gene No. 5726 ([1]; rat, in vivo): +
- Behavior of gene caused by administration of chemical substance, Gene No. 5878 ([1]; rat, in vivo): −
- Behavior of gene caused by administration of chemical substance, Gene No. 6026 ([1]; rat, in vivo): −
- Behavior of gene caused by administration of chemical substance, Gene No. 6182 ([1]; rat, in vivo): −
- Behavior of gene caused by administration of chemical substance, Gene No. 6303 ([1]; rat, in vivo): −
- Behavior of gene caused by administration of chemical substance, Gene No. 6620 ([1]; rat, in vivo): −
- Behavior of gene caused by administration of chemical substance, Gene No. 6742 ([1]; rat, in vivo): −
- Carcinogenicity (rodent): C−
- Liver carcinogenicity (liver): Cr−

SMILES: CCN(CC)N=O [TS011, Diethylnitrosamine]
- Behavior of gene caused by administration of chemical substance, Gene No. 4846 [1, 2]: +
- Behavior of gene caused by administration of chemical substance, Gene No. 4218 [1, 3]: +
- Behavior of gene caused by administration of chemical substance, Gene No. 2026 [1, 4]: +
- Behavior of gene caused by administration of chemical substance, Gene No. 6182 [1, 5]: +
- Behavior of gene caused by administration of chemical substance, Gene No. 5600 [1, 6]: +
- Behavior of gene caused by administration of chemical substance, Gene No. 1494 [1, 7]: +
- Behavior of gene caused by administration of chemical substance, Gene No. 2045 [1, 8]: −
- Behavior of gene caused by administration of chemical substance, Gene No. 2203 [1, 9]: −
- Behavior of gene caused by administration of chemical substance, Gene No. 533 [1, 10]: +
- Behavior of gene caused by administration of chemical substance, Gene No. 725 [1, 11]: −
- Behavior of gene caused by administration of chemical substance, Gene No. 1163 [1, 12]: −
- Behavior of gene caused by administration of chemical substance, Gene No. 4973 [1, 13]: +
- Behavior of gene caused by administration of chemical substance, Gene No. 4095 [1, 14]: +
- Behavior of gene caused by administration of chemical substance, Gene No. 1334 [1, 15]: −
- Behavior of gene caused by administration of chemical substance, Gene No. 6620 [1, 15]: −
- Behavior of gene caused by administration of chemical substance, Gene No. 6303 [1, 16]: +
- Behavior of gene caused by administration of chemical substance, Gene No. 5878 [1, 17]: −
- Behavior of gene caused by administration of chemical substance, Gene No. 1131 [1, 18]: −
- Behavior of gene caused by administration of chemical substance, Gene No. 1562 [1, 19]: +
- Behavior of gene caused by administration of chemical substance, Gene No. 1741 [1, 20]: +
- Behavior of gene caused by administration of chemical substance, Gene No. 893 [1, 21]: +
- Behavior of gene caused by administration of chemical substance, Gene No. 6026 [1, 22]: +
- Behavior of gene caused by administration of chemical substance, Gene No. 154 [1, 23]: +
- Behavior of gene caused by administration of chemical substance, Gene No. 1993 [1, 24]: +
- Behavior of gene caused by administration of chemical substance, Gene No. 813 [1, 25]: −
- Behavior of gene caused by administration of chemical substance, Gene No. 2494 [1, 26]: +
- Behavior of gene caused by administration of chemical substance, Gene No. 2546 [1, 27]: +
- Behavior of gene caused by administration of chemical substance, Gene No. 3776 [1, 28]: −
- Behavior of gene caused by administration of chemical substance, Gene No. 3929 [1, 29]: −
- Behavior of gene caused by administration of chemical substance, Gene No. 1119 [1, 30]: −
- Behavior of gene caused by administration of chemical substance, Gene No. 6742 [1, 31]: −
- Behavior of gene caused by administration of chemical substance, Gene No. 5634 [1, 32]: −
- Behavior of gene caused by administration of chemical substance, Gene No. 5726 [1, 33]: −
- Carcinogenicity (rodent): C+
- Liver carcinogenicity (liver): Cr+

SMILES: O=NN1CCOCC1 [TS014, N-Nitrosomorpholine]
- Behavior of gene caused by administration of chemical substance, Gene No. 4846 [1, 2]: +
- Behavior of gene caused by administration of chemical substance, Gene No. 4218 [1, 3]: +
- Behavior of gene caused by administration of chemical substance, Gene No. 2026 [1, 4]: +
- Behavior of gene caused by administration of chemical substance, Gene No. 6182 [1, 5]: +
- Behavior of gene caused by administration of chemical substance, Gene No. 5600 [1, 6]: +
- Behavior of gene caused by administration of chemical substance, Gene No. 1494 [1, 7]: +
- Behavior of gene caused by administration of chemical substance, Gene No. 2045 [1, 8]: −
- Behavior of gene caused by administration of chemical substance, Gene No. 2203 [1, 9]: −
- Behavior of gene caused by administration of chemical substance, Gene No. 533 [1, 10]: −
- Behavior of gene caused by administration of chemical substance, Gene No. 725 [1, 11]: −
- Behavior of gene caused by administration of chemical substance, Gene No. 1163 [1, 12]: +
- Behavior of gene caused by administration of chemical substance, Gene No. 4973 [1, 13]: −
- Behavior of gene caused by administration of chemical substance, Gene No. 4095 [1, 14]: −
- Behavior of gene caused by administration of chemical substance, Gene No. 1334 [1, 15]: −
- Behavior of gene caused by administration of chemical substance, Gene No. 6620 [1, 15]: −
- Behavior of gene caused by administration of chemical substance, Gene No. 6303 [1, 16]: −
- Behavior of gene caused by administration of chemical substance, Gene No. 5878 [1, 17]: −
- Behavior of gene caused by administration of chemical substance, Gene No. 1131 [1, 18]: −
- Behavior of gene caused by administration of chemical substance, Gene No. 1562 [1, 19]: −
- Behavior of gene caused by administration of chemical substance, Gene No. 1741 [1, 20]: −
- Behavior of gene caused by administration of chemical substance, Gene No. 893 [1, 21]: −
- Behavior of gene caused by administration of chemical substance, Gene No. 6026 [1, 22]: −
- Behavior of gene caused by administration of chemical substance, Gene No. 154 [1, 23]: −
- Behavior of gene caused by administration of chemical substance, Gene No. 1993 [1, 24]: +
- Behavior of gene caused by administration of chemical substance, Gene No. 813 [1, 25]: +
- Behavior of gene caused by administration of chemical substance, Gene No. 2494 [1, 26]: −
- Behavior of gene caused by administration of chemical substance, Gene No. 2546 [1, 27]: −
- Behavior of gene caused by administration of chemical substance, Gene No. 3776 [1, 28]: −
- Behavior of gene caused by administration of chemical substance, Gene No. 3929 [1, 29]: −
- Behavior of gene caused by administration of chemical substance, Gene No. 1119 [1, 30]: −
- Behavior of gene caused by administration of chemical substance, Gene No. 6742 [1, 31]: −
- Behavior of gene caused by administration of chemical substance, Gene No. 5634 [1, 32]: −
- Behavior of gene caused by administration of chemical substance, Gene No. 5726 [1, 33]: −
- Carcinogenicity (rodent): C+
- Liver carcinogenicity (liver): Cr+
